What was measured:
Experiment in all cases: biochemical
Set-up in all cases: KinomeScan competition binding panel (DiscoveRx), percent of control at 1 uM
Conditions in all cases: read-out: Percent Control
NEK1 = NEK1 (Homo sapiens, UniProt Q96PY6)
Method in brief: (§1)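 Selectivity profiled across 456 kinases/mutants by KinomeScan binding technology.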

RET(V804L) = RET(V804L) (Homo sapiens, UniProt P07949, V804L)
Method in brief: as §1

HUNK = HUNK (Homo sapiens, UniProt P57058)
Method in brief: as §1

MYO3A = MYO3A (Homo sapiens, UniProt Q8NEV4)
Method in brief: as §1

[1] = target: T1, ABL1(Q252H)-nonphosphorylated (Homo sapiens, UniProt P00519, Q252H)
T1 construct: nonphosphorylated
Method in brief: as §1

NEK4 = NEK4 (Homo sapiens, UniProt P51957)
Method in brief: as §1

FRK = FRK (Homo sapiens, UniProt P42685)
Method in brief: as §1

AMPK-alpha2 = target: T2, AMPK-alpha2 (Homo sapiens, UniProt P54646)
T2 construct: gene PRKAA2
T2 sequence (P54646 whole entry): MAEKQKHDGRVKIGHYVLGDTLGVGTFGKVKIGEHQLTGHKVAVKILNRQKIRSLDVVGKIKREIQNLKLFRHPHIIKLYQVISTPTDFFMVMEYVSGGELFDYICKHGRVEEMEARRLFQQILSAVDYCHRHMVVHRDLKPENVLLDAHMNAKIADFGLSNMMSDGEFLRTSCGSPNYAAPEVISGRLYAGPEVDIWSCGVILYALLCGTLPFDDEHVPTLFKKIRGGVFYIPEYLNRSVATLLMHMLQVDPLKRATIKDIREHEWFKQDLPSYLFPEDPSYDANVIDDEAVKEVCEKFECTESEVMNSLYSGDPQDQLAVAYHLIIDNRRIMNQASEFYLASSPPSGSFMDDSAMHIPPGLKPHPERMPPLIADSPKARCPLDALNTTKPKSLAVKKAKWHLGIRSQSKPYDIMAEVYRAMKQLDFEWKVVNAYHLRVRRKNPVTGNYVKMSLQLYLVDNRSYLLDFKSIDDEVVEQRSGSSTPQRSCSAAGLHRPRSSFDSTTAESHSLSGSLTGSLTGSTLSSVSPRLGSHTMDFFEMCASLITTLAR
Method in brief: as §1

SNARK = target: T3, SNARK (Homo sapiens, UniProt Q9H093)
T3 construct: gene NUAK2
T3 sequence (Q9H093 whole entry): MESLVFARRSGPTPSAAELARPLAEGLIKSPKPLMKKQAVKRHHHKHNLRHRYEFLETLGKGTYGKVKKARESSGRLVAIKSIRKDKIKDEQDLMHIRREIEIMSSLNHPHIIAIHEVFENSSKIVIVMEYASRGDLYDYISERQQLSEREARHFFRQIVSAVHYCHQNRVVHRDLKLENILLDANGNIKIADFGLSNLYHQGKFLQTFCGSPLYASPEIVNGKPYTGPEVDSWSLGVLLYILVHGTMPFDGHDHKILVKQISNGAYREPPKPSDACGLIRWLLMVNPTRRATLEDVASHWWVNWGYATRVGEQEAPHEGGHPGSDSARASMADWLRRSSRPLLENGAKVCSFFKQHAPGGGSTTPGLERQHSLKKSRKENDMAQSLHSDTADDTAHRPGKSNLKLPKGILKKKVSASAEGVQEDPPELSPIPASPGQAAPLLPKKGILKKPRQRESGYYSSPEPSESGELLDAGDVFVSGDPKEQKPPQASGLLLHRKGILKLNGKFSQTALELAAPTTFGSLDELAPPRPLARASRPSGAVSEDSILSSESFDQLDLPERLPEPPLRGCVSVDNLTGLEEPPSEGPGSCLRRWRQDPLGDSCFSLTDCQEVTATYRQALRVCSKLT
Method in brief: as §1

CLK4 = CLK4 (Homo sapiens, UniProt Q9HAZ1)
Method in brief: as §1

KIT(A829P) = KIT(A829P) (Homo sapiens, UniProt P10721, A829P)
Method in brief: as §1

EPHB6 = EPHB6 (Homo sapiens, UniProt O15197)
Method in brief: as §1

AURKA = AURKA (Homo sapiens, UniProt O14965)
Method in brief: as §1

ABL2 = ABL2 (Homo sapiens, UniProt P42684)
Chain of ABL2 (P42684 whole entry): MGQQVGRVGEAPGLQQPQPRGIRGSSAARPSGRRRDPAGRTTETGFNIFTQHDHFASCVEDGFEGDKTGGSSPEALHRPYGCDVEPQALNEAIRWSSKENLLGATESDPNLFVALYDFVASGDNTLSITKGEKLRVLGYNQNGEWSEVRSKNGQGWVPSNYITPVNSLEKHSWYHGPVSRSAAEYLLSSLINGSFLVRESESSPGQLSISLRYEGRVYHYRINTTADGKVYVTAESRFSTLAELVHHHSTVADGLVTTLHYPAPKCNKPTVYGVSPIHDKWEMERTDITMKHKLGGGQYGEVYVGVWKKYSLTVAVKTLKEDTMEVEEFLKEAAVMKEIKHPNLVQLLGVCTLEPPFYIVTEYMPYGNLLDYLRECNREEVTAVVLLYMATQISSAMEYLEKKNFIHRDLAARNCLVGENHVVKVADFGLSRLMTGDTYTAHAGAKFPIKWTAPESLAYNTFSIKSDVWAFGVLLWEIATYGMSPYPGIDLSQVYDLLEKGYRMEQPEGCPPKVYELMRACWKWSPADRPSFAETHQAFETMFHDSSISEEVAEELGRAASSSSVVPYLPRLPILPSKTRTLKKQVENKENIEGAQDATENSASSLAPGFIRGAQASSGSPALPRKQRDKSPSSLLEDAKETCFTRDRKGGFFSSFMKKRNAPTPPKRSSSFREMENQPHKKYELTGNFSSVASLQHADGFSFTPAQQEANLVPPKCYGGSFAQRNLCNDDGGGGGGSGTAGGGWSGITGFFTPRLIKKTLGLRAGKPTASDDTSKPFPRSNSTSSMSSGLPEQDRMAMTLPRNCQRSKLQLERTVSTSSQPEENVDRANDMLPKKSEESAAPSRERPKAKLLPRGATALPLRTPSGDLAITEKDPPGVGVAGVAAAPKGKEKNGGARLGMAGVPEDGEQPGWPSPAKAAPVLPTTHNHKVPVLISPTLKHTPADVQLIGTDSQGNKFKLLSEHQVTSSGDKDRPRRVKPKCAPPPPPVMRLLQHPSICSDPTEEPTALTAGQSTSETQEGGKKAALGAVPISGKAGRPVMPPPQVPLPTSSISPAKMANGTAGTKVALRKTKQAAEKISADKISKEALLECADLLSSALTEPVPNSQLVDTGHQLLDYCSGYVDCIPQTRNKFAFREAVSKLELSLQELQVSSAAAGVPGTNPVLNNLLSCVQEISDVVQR
Method in brief: as §1

NEK3 = NEK3 (Homo sapiens, UniProt P51956)
Method in brief: as §1

MEK2 = target: T4, MEK2 (Homo sapiens, UniProt P36507)
T4 construct: gene MAP2K2
Method in brief: as §1

p38-alpha = target: T5, p38-alpha (Homo sapiens, UniProt Q16539)
T5 construct: gene MAPK14
Method in brief: as §1

ACVRL1 = ACVRL1 (Homo sapiens, UniProt P37023)
Method in brief: as §1

LATS2 = LATS2 (Homo sapiens, UniProt Q9NRM7)
Method in brief: as §1

CSNK1A1L = CSNK1A1L (Homo sapiens, UniProt Q8N752)
Method in brief: as §1

HIPK2 = HIPK2 (Homo sapiens, UniProt Q9H2X6)
Method in brief: as §1

FLT1 = FLT1 (Homo sapiens, UniProt P17948)
Chain of FLT1 (P17948 whole entry): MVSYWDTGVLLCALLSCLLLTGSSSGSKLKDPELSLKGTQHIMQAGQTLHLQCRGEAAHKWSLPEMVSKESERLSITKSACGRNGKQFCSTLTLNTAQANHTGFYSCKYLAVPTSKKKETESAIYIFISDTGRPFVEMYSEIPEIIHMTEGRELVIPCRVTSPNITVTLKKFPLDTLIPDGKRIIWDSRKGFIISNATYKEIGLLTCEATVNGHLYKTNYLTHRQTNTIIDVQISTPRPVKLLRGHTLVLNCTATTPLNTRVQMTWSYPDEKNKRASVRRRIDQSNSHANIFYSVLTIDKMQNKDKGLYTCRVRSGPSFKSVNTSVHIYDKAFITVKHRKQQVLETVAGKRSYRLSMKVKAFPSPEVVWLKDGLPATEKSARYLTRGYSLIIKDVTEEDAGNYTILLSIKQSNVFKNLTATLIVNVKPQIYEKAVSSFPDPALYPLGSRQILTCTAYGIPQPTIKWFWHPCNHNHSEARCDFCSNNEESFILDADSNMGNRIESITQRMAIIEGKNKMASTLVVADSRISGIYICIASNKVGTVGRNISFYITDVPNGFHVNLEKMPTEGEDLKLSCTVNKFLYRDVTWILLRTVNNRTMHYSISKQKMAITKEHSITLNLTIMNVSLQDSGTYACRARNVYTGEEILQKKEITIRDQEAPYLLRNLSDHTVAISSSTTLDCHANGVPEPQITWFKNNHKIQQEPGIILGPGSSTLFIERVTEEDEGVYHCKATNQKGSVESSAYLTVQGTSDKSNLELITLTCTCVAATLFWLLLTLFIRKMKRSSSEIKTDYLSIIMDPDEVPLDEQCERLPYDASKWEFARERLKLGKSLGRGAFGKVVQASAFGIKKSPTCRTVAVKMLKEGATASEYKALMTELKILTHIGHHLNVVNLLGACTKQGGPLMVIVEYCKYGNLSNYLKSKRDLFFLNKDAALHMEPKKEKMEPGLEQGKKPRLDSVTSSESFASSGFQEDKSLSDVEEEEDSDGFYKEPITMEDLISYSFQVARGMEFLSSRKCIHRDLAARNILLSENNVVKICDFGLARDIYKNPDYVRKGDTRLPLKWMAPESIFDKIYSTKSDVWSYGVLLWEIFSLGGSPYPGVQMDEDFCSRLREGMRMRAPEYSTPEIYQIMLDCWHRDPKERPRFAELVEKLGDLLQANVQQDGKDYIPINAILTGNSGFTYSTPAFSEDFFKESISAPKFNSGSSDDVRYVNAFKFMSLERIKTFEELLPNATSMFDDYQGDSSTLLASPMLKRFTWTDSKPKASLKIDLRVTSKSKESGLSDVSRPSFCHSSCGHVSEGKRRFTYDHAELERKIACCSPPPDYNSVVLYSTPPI
Method in brief: as §1

CAMK2B = CAMK2B (Homo sapiens, UniProt Q13554)
Method in brief: as §1

MRCKA = target: T6, MRCKA (Homo sapiens, UniProt Q5VT25)
T6 construct: gene CDC42BPA
Method in brief: as §1

PIK3CA(I800L) = PIK3CA(I800L) (Homo sapiens, UniProt P42336, I800L)
Method in brief: as §1

Chain of NEK1 (Q96PY6 whole entry): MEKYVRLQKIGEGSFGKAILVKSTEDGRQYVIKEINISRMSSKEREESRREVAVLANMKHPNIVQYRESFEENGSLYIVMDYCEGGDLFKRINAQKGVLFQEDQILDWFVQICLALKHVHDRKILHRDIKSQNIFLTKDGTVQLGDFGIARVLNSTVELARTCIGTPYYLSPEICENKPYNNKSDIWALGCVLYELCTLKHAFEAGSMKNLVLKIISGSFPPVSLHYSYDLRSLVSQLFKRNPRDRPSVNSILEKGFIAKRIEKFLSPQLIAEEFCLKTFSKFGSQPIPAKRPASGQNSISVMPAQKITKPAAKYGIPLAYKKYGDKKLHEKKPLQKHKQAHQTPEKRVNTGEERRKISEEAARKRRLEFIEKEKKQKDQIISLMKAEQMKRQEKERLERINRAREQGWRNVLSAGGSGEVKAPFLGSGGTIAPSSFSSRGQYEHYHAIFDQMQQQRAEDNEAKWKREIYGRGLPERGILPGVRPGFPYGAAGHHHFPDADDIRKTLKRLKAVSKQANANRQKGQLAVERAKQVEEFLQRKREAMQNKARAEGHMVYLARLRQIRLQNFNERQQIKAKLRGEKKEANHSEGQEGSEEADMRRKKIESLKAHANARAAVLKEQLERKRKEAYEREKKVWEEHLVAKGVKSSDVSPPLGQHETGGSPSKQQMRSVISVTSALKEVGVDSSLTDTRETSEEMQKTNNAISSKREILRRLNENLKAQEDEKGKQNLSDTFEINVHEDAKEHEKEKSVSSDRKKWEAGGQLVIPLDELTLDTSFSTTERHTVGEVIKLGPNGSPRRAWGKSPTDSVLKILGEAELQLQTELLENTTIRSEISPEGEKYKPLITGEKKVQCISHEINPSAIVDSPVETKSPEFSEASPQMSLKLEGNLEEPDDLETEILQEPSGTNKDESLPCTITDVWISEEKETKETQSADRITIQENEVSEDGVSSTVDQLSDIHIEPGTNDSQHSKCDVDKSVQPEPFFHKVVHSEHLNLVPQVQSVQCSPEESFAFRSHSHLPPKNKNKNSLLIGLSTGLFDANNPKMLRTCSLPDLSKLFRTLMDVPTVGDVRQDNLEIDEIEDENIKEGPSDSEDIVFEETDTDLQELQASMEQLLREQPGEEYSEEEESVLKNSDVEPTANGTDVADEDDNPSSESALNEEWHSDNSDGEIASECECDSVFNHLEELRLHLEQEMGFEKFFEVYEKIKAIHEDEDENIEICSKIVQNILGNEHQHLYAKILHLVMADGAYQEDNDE

`C=CC(=O)Nc1cc(-n2c(=O)ccc3cnc4ccc(-n5cccn5)cc4c32)ccc1C` [CHMFL-BTK-11] gave a remaining binding at 1 µM (NEK1) of 82%, a remaining binding at 1 µM (RET(V804L)) of 97% and a remaining binding at 1 µM (HUNK) of 86%. The remaining binding at 1 µM (MYO3A) was 100%, the remaining binding at 1 µM [1] was 100% and the remaining binding at 1 µM (NEK4) was 100%. It also gave a remaining binding at 1 µM (FRK) of 100%, a remaining binding at 1 µM (AMPK-alpha2) of 86% and a remaining binding at 1 µM (SNARK) of 90%. For the same compound, the remaining binding at 1 µM (CLK4) was 90%, the remaining binding at 1 µM (KIT(A829P)) was 98% and the remaining binding at 1 µM (EPHB6) was 87%. For the same compound, the remaining binding at 1 µM (AURKA) was 71%, the remaining binding at 1 µM (ABL2) was 100% and the remaining binding at 1 µM (NEK3) was 87%. It also gave a remaining binding at 1 µM (MEK2) of 92%, a remaining binding at 1 µM (p38-alpha) of 76% and a remaining binding at 1 µM (ACVRL1) of 90%. For the same compound, the remaining binding at 1 µM (LATS2) was 100%, the remaining binding at 1 µM (CSNK1A1L) was 100% and the remaining binding at 1 µM (HIPK2) was 96%. The remaining binding at 1 µM (FLT1) was 88%, the remaining binding at 1 µM (CAMK2B) was 100% and the remaining binding at 1 µM (MRCKA) was 100%. For the same compound, the remaining binding at 1 µM (PIK3CA(I800L)) was 62%.

Reference: article PMC5428509, “Irreversible inhibition of BTK kinase by a novel highly selective inhibitor CHMFL-BTK-11 suppresses inflammatory response in rheumatoid arthritis model” (Scientific Reports, 2017)
